Results taken from US20070190188A1, “Controlling Toxicity of Aminoquinoline Compounds” (The University of Mississippi, priority 2005, published 2007).

Legend:
human erythrocytes = experiment: In vitro methemoglobin formation, human erythrocytes, control without microsomes; type: cell-based
Procedure: (§1) In one aspect of the present invention, an in vitro assay is developed for evaluation of biotransformation reactions leading to generation of methemoglobinemic metabolites of 8-aminoquinolines. This method uses simultaneous incubation of a test compound with the hepatic microsomes or Baculosomes® (microsomes prepared from insect cells infected with recombinant baculovirus containing a cDNA insert for a specific human P450 isozyme and NADPH-P450 reductase) and human erythrocytes followed by determination of methemoglobin formation. This allows the unstable metabolites generated in situ to react with the human erythrocytes.

Mouse Liver Microsomes = experiment: In vitro formation of methemoglobinemic metabolites with mouse liver microsomes and human erythrocytes; type: cell-based
Procedure: as §1

CYP 2A6 = target: T1, CYP 2A6 (Homo sapiens, UniProt P11509); experiment: Methemoglobinemic metabolite formation with Baculosomes, CYP 2A6; type: cell-based; conditions: mean ± S.D. of four
T1 construct: purchased; host or cells: insect cells infected with recombinant baculovirus
T1 sequence (P11509 1-494): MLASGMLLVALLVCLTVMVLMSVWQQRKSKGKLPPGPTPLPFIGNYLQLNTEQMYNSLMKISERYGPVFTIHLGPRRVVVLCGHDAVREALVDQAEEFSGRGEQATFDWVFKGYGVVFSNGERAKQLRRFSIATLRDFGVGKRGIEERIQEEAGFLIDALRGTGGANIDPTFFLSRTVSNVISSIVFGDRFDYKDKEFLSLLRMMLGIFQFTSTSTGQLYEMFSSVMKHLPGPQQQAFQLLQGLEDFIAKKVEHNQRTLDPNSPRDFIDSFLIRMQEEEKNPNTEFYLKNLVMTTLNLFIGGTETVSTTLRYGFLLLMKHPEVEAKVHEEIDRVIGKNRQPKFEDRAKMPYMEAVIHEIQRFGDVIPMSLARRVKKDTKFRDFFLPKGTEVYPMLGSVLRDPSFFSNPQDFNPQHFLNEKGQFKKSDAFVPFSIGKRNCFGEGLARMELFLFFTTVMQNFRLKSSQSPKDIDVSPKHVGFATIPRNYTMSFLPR
Procedure: (§2) This method uses simultaneous incubation of a test compound with the hepatic microsomes or Baculosomes® (microsomes prepared from insect cells infected with recombinant baculovirus containing a cDNA insert for a specific human P450 isozyme and NADPH-P450 reductase) and human erythrocytes followed by determination of methemoglobin formation. This allows the unstable metabolites generated in situ to react with the human erythrocytes.

CYP 2C9 = target: T2, CYP 2C9 (Homo sapiens, UniProt P11712); experiment: Methemoglobinemic metabolite formation with Baculosomes, CYP 2C9; type: cell-based; conditions: mean ± S.D. of four
T2 construct: purchased; host or cells: insect cells infected with recombinant baculovirus
T2 sequence (P11712 whole entry): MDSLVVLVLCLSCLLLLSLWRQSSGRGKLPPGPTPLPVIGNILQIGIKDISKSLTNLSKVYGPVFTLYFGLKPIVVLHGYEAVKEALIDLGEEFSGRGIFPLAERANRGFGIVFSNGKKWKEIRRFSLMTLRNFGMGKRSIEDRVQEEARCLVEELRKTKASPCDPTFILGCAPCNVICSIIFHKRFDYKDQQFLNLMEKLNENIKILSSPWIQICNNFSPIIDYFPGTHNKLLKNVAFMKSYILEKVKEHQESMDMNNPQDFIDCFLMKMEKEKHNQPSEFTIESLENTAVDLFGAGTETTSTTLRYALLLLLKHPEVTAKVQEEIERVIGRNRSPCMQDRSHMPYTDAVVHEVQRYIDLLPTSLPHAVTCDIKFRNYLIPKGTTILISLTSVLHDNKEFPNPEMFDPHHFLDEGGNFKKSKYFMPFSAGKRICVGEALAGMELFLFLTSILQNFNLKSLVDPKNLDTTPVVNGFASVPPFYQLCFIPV
Procedure: as §2

Plasmodium berghei = experiment: In vivo antimalarial evaluation in Plasmodium berghei-mouse malaria model
From the text: One concern with this method of controlling 8-aminoquinoline toxicity is that the inhibition metabolism of the drug may impair its antiparasitic efficacy. […] Thus treatment of the individuals with NPC1161B along with an inhibitor of CYP3A4 should not compromise the therapeutic efficiency of NPC1161B.

In the case of `COc1cc(N[C@H](C)CCCN)c2nccc(C)c2c1Oc1ccc(Cl)c(Cl)c1` [NPC1161B], the “% methemoglobin formed, Supersomes None” value (human erythrocytes; no Baculosomes, mean ± S.D. of four) is reported as 0.980 ± 0.493%, the “% methemoglobin formation, Control” value (human erythrocytes; no microsomes, drug 100 μM, Mean ± S.D. of four observations) is reported as 0.980 ± 0.439% and the “formation of methemoglobenemic metabolites, Azithromycin” value (Mouse Liver Microsomes; Mouse Liver Microsomes, 8-aminoquinoline with Azithromycin) is reported as 9.993 ± 1.306. The “formation of methemoglobenemic metabolites, Erythromycin” value (Mouse Liver Microsomes; Mouse Liver Microsomes, 8-aminoquinoline with Erythromycin) was 3.133 ± 0.963, the “formation of methemoglobenemic metabolites, Microsomes” value (Mouse Liver Microsomes; Mouse Liver Microsomes, no macrolide) was 11.24 ± 3.612 and the “% methemoglobin formation, Mouse Liver Microsomes” value (Mouse Liver Microsomes; drug 100 μM, microsomes equivalent to 25 pmoles cytochrome P450, Mean ± S.D. of four) was 11.240 ± 3.612%. For the same compound, the “% methemoglobin formed, CYP 2A6” value (CYP 2A6) was 2.135 ± 0.530%, the “% methemoglobin formed, CYP 2C9” value (CYP 2C9) was 3.690 ± 1.660% and the deaths (Plasmodium berghei; NPC 1161B 0.312 mg/kg × 3 oral +TAO (i.p.)) was “nil”. For the same compound, the “(%) Parasitemia” value (Plasmodium berghei; NPC 1161B 0.312 mg/kg × 3 oral +TAO (i.p.), day 10 p.i., individual mice) was 0/0/0/0/0, the “(%) Parasitemia” value (Plasmodium berghei; NPC 1161B 0.312 mg/kg × 3 oral +TAO (i.p.), day 14 p.i., mean in brackets) was 2.83/2.04/+/5.29/0 (2.0) % and the “(%) Parasitemia” value (Plasmodium berghei; NPC 1161B 0.312 mg/kg × 3 oral +TAO (i.p.), day 21 p.i., mean in brackets) was 23.8/32.4/0/28.3/0 (16.9) %. The deaths (Plasmodium berghei; NPC 1161B 0.312 mg/kg × 3 oral, Alone) was “nil”, the “(%) Parasitemia” value (Plasmodium berghei; NPC 1161B 0.312 mg/kg × 3 oral, Alone, day 14 p.i., mean in brackets) was 0/5.8/0.66/0.8/1.36 (2.9) % and the “(%) Parasitemia” value (Plasmodium berghei; NPC 1161B 0.312 mg/kg × 3 oral, Alone, day 21 p.i., mean in brackets) was 11.3/53.3/19.4/6.0/17.8 (21.5) %. The deaths (Plasmodium berghei; NPC 1161B 0.625 mg/kg × 3 oral +TAO (i.p.)) was “nil”, the “(%) Parasitemia” value (Plasmodium berghei; NPC 1161B 0.625 mg/kg × 3 oral +TAO (i.p.), day 10 p.i., individual mice) was 0/0/0/0/0 and the “(%) Parasitemia” value (Plasmodium berghei; NPC 1161B 0.625 mg/kg × 3 oral +TAO (i.p.), day 21 p.i., mean in brackets) was 8.4/0/10.4/18.4/1.5 (7.7) %. For the same compound, the deaths (Plasmodium berghei; NPC 1161B 0.625 mg/kg × 3 oral, Alone) was “nil”, the “(%) Parasitemia” value (Plasmodium berghei; NPC 1161B 0.625 mg/kg × 3 oral, Alone, day 7 p.i., individual mice) was 0/0/0/0/0 and the “(%) Parasitemia” value (Plasmodium berghei; NPC 1161B 0.625 mg/kg × 3 oral, Alone, day 21 p.i., mean in brackets) was 0/+/5.2/2.6/3.7 (2.3) %. The deaths (Plasmodium berghei; NPC 1161B 1.25 mg/kg × 3 oral +TAO (i.p.)) was “nil”, the “(%) Parasitemia” value (Plasmodium berghei; NPC 1161B 1.25 mg/kg × 3 oral +TAO (i.p.), day 7 p.i., individual mice) was 0/0/0/0/0 and the “(%) Parasitemia” value (Plasmodium berghei; NPC 1161B 1.25 mg/kg × 3 oral +TAO (i.p.), day 10 p.i., individual mice) was 0/0/0/0/0. The “(%) Parasitemia” value (Plasmodium berghei; NPC 1161B 1.25 mg/kg × 3 oral +TAO (i.p.), day 14 p.i., individual mice) was 0/0/0/0/0, the “(%) Parasitemia” value (Plasmodium berghei; NPC 1161B 1.25 mg/kg × 3 oral +TAO (i.p.), day 21 p.i., individual mice) was 0/0/0/0/0 and the “(%) Parasitemia” value (Plasmodium berghei; NPC 1161B 1.25 mg/kg × 3 oral +TAO (i.p.), day 28 p.i., individual mice) was 0/0/0/0/0. For the same compound, the deaths (Plasmodium berghei; NPC 1161B 1.25 mg/kg × 3 oral, Alone) was “nil”, the “(%) Parasitemia” value (Plasmodium berghei; NPC 1161B 1.25 mg/kg × 3 oral, Alone, day 7 p.i., individual mice) was 0/0/0/0/0 and the “(%) Parasitemia” value (Plasmodium berghei; NPC 1161B 1.25 mg/kg × 3 oral, Alone, day 10 p.i., individual mice) was 0/0/0/0/0. The “(%) Parasitemia” value (Plasmodium berghei; NPC 1161B 1.25 mg/kg × 3 oral, Alone, day 14 p.i., individual mice) was 0/0/0/0/0, the “(%) Parasitemia” value (Plasmodium berghei; NPC 1161B 1.25 mg/kg × 3 oral, Alone, day 21 p.i., individual mice) was 0/0/0/0/0 and the “(%) Parasitemia” value (Plasmodium berghei; NPC 1161B 1.25 mg/kg × 3 oral, Alone, day 28 p.i., individual mice) was 0/0/0/0/0. For the same compound, the deaths (Plasmodium berghei; NPC 1161B 2.5 mg/kg × 3 oral +TAO (i.p.)) was “nil”, the “(%) Parasitemia” value (Plasmodium berghei; NPC 1161B 2.5 mg/kg × 3 oral +TAO (i.p.), day 7 p.i., individual mice) was 0/0/0/0/0 and the “(%) Parasitemia” value (Plasmodium berghei; NPC 1161B 2.5 mg/kg × 3 oral +TAO (i.p.), day 10 p.i., individual mice) was 0/0/0/0/0. For the same compound, the “(%) Parasitemia” value (Plasmodium berghei; NPC 1161B 2.5 mg/kg × 3 oral +TAO (i.p.), day 14 p.i., individual mice) was 0/0/0/0/0, the “(%) Parasitemia” value (Plasmodium berghei; NPC 1161B 2.5 mg/kg × 3 oral +TAO (i.p.), day 21 p.i., individual mice) was 0/0/0/0/0 and the “(%) Parasitemia” value (Plasmodium berghei; NPC 1161B 2.5 mg/kg × 3 oral +TAO (i.p.), day 28 p.i., individual mice) was 0/0/0/0/0. For the same compound, the deaths (Plasmodium berghei; NPC 1161B 2.5 mg/kg × 3 oral, Alone) was “nil”, the “(%) Parasitemia” value (Plasmodium berghei; NPC 1161B 2.5 mg/kg × 3 oral, Alone, day 7 p.i., individual mice) was 0/0/0/0/0 and the “(%) Parasitemia” value (Plasmodium berghei; NPC 1161B 2.5 mg/kg × 3 oral, Alone, day 10 p.i., individual mice) was 0/0/0/0/0. The “(%) Parasitemia” value (Plasmodium berghei; NPC 1161B 2.5 mg/kg × 3 oral, Alone, day 14 p.i., individual mice) was 0/0/0/0/0, the “(%) Parasitemia” value (Plasmodium berghei; NPC 1161B 2.5 mg/kg × 3 oral, Alone, day 21 p.i., individual mice) was 0/0/0/0/0 and the “(%) Parasitemia” value (Plasmodium berghei; NPC 1161B 2.5 mg/kg × 3 oral, Alone, day 28 p.i., individual mice) was 0/0/0/0/0. The “effect of troleandomycin on the antimalarial property of NPC1161B” value (Plasmodium berghei; mice infected with Plasmodium berghei, Table 7) was “does not antagonize”.
